From publication PMC11204201 (Science Advances, 2024)

Assays:
UndA = target: T1, UndA (Pseudomonas putida, UniProt A5W7G6); assay: 1-undecene production, total turnover; assay type: biochemical; settings: optimal conditions of UndA; details in supplement
T1 sequence (A5W7G6 1-271): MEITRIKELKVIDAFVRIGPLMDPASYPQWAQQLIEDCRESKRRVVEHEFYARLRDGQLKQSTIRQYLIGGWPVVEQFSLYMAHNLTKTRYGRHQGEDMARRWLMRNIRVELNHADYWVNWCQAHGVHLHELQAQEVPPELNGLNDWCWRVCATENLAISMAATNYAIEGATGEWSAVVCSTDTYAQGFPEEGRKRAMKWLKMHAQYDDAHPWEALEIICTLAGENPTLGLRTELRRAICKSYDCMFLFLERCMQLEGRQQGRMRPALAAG

OleT = target: T2, OleT (Jeotgalicoccus sp. ATCC 8456, UniProt E9NSU2); assay: 1-undecene production, total turnover; assay type: biochemical; settings: CamAB redox partner system
T2 sequence (E9NSU2 1-422): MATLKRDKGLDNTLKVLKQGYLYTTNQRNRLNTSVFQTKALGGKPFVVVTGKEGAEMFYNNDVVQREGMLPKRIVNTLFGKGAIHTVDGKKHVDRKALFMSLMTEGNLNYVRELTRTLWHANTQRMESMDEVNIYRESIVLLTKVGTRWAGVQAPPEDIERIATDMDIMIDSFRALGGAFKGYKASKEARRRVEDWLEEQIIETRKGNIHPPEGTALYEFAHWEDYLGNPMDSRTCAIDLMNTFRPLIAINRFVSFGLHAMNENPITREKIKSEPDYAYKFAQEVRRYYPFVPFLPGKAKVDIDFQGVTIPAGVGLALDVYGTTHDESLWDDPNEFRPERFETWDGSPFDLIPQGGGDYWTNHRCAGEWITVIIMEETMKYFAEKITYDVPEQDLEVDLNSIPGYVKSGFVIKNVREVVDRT

With CCCCCCCCCCCC(=O)O [compound 5, lauric acid] the “1-undecene production, total turnover” value (UndA) was “While UndA exhibited poor activity” and the “1-undecene production, total turnover” value (OleT) was “UndB, OleT, and OleT-AldO showed substantial 1-undecene production (fig. S6)”.
